According to PMC7364574 (ACS Omega, 2020):

Legend:
A549 cells [1] = assay: Apoptosis analysis by flow cytometry; type: cell-based; settings: 24 h, control 5.16%
c-Met kinase = c-Met kinase (Homo sapiens, UniProt P08581); assay: c-Met tyrosine kinase mobility shift assay; type: biochemical; settings: IC50 (μM) c-Met
A549 cells [2] = assay: Cell cycle distribution analysis by flow cytometry; type: cell-based; settings: 24 h, control 56.06%
A549 cells [3] = assay: Acridine orange; type: cell-based; settings: A549, 0.50 μM, 8 h

c-Met kinase, sequence (P08581 25-1390): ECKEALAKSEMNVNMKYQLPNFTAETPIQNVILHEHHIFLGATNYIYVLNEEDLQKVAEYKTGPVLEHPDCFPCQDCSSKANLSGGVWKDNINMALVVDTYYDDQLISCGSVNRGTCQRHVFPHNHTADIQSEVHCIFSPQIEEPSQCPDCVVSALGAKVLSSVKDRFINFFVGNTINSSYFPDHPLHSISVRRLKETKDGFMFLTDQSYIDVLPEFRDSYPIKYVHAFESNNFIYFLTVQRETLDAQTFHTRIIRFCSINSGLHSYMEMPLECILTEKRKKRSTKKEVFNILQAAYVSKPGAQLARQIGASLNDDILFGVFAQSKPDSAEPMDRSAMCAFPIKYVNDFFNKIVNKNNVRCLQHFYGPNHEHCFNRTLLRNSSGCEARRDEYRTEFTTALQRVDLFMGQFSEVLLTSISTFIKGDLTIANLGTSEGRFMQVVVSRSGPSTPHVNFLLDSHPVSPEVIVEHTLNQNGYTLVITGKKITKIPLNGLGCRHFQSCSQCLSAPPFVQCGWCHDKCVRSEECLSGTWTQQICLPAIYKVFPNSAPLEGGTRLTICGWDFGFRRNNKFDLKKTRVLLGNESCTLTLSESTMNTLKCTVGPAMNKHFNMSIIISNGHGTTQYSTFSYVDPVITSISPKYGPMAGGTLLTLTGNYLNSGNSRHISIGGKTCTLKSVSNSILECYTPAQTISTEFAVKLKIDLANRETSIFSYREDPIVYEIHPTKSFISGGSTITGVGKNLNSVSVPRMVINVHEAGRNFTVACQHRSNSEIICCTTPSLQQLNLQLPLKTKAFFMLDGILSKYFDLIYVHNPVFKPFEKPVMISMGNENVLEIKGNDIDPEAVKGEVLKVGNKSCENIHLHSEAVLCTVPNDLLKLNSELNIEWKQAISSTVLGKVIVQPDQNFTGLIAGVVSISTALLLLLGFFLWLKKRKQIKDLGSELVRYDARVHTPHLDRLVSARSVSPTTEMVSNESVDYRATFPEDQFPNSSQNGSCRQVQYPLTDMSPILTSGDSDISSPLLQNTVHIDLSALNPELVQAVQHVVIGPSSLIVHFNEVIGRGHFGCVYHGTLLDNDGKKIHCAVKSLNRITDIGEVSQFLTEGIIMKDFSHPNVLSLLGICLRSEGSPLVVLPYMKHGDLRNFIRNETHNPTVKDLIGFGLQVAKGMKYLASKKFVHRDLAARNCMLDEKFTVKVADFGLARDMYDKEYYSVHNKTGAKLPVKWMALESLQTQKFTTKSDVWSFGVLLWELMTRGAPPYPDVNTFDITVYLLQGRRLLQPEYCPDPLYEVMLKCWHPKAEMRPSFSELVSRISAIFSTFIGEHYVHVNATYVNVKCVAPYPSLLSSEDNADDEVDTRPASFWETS

SMILES: Cc1cc(Oc2ccc(NC(=O)c3sc(-c4ccccn4)nc3C)cc2)c2nncn2n1 [12e, 4-Methyl-N-(4-((6-methyl-[1,2,4]triazolo[4,3-b]pyridazin-8-yl)oxy)phenyl)-2-(pyridin-2-yl)thiazole-5-carboxamide]
- total apoptosis rate (A549 cells [1]; A549, 3.75 μM): 13.73%
- total apoptosis rate (A549 cells [1]; A549, 7.50 μM): 24.87%
- total apoptosis rate (A549 cells [1]; A549, 15.00 μM): 35.87%
- IC50 (c-Met kinase): 0.09 to 0.21 µM
- G0/G1 phase population (A549 cells [2]; A549, 3.75 μM): 60.25%
- G0/G1 phase population (A549 cells [2]; A549, 7.50 μM): 66.32%
- G0/G1 phase population (A549 cells [2]; A549, 15.00 μM): 76.84%
- induction of apoptosis, AO staining (A549 cells [3]): significant effect on inducing apoptosis

SMILES: Cc1cc(Oc2ccc(NC(=O)c3cnn(-c4ccc(Cl)cc4)c3C(F)(F)F)cc2F)c2nncn2n1 [13b, 1-(4-Chlorophenyl)-N-(3-fluoro-4-((6-methyl-[1,2,4]triazolo[4,3-b]pyridazin-8-yl)oxy)phenyl)-5-(trifluoromethyl)-1H-pyrazole-4-carboxamide]
- IC50 (c-Met kinase): 0.09 to 0.21 µM
